Our source for the TGI and GI50 values is PubChem BioAssay (NCI).

Among the test systems are CCRF-CEM leukemia; EKVX NSCLC; LOX IMVI melanoma; NCI-H226 lung; OVCAR-8 ovarian; RPMI-8226 leukemia; SF-268 CNS; UACC-257 melanoma; MDA-MB-435; PC-3 prostate.
What all share (assay): NCI-60 cell line screen, 48 h

Where “and” joins values, the source holds several entries; their conditions need not be identical. Equal values may be shown once. Where a name gives a salt, the structure may show the parent alone.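 Method: 48-hour compound exposure of cells in 96-well plates, five concentrations, linear interpolation of endpoints. At the GI50, growth is halved. TGI: concentration producing complete growth inhibition.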 Where a SMILES comes first, the peptide text is derived from it. The star is where a group is joined. Boc = CC(C)(C)OC(=O)*; Tfa = O=C(C(F)(F)F)*; Bz = O=C(c1ccccc1)* A value given as a limit tells only on which side of the number the result lay.

Regarding `CCNC(C)Cc1ccccc1` (centres undefined), the TGI with CCRF-CEM leukemia, in the assay on EKVX NSCLC, with LOX IMVI melanoma, in the assay with NCI-H226 lung, in the assay on OVCAR-8 ovarian and in the assay on RPMI-8226 leukemia was more than 100 µM throughout. Besides, the TGI in the assay on SF-268 CNS and in the assay with UACC-257 melanoma was more than 100 µM throughout.
As for `CS(=O)(=O)c1ccc(/C=N/NC(N)=S)cc1`, the TGI in the assay with EKVX NSCLC, with LOX IMVI melanoma, in the assay on MDA-MB-435, in the assay on NCI-H226 lung, with OVCAR-8 ovarian and in the assay on PC-3 prostate was more than 100 µM in each case. The TGI in the assay on RPMI-8226 leukemia, with SF-268 CNS and in the assay with UACC-257 melanoma was more than 100 µM throughout.
As to `NCC(=O)NC1(c2cc3ccccc3s2)CCCCC1`, the TGI with CCRF-CEM leukemia was 59.5 µM; in the assay on EKVX NSCLC, more than 100 µM; with LOX IMVI melanoma, more than 100 µM; in the assay with MDA-MB-435 it was more than 100 µM; in the assay with NCI-H226 lung it was 69.5 µM; with OVCAR-8 ovarian it was more than 100 µM. Further, the TGI in the assay on RPMI-8226 leukemia was 45.2 µM; with SF-268 CNS, more than 100 µM; in the assay on UACC-257 melanoma, 32.1 µM.
Consider `O=C(O)CC(NC(=O)C(F)(F)F)C(=O)NC(Cc1ccc(O)cc1)C(=O)O` (stereo not drawn) (Tfa-Asp-Tyr-OH; configuration not given here), for which the TGI in the assay with EKVX NSCLC, in the assay with MDA-MB-435, with NCI-H226 lung, in the assay on OVCAR-8 ovarian, in the assay with PC-3 prostate and with RPMI-8226 leukemia was more than 50 µM throughout. Besides, the TGI with SF-268 CNS and with UACC-257 melanoma was more than 50 µM in each case.
For `CC1(C)CCC[C@@]2(C)C1CCC1(C)C(CCc3ccoc3)/C(=C/OS(=O)(=O)O)CCC12` (some centres undefined) (tested in a mixture with another compound), the TGI with CCRF-CEM leukemia, with EKVX NSCLC, with LOX IMVI melanoma, in the assay with NCI-H226 lung, in the assay with OVCAR-8 ovarian and in the assay on RPMI-8226 leukemia was more than 100 µM each time. Also, the TGI with SF-268 CNS and with UACC-257 melanoma was more than 100 µM throughout.
Consider `CC(NC(=O)C(Cc1ccc(OC(=O)c2ccccc2)cc1)NC(=O)OC(C)(C)C)C(=O)NC(Cc1ccccc1)C(=O)NCC(N)=O` (centres undefined) (Boc-Y(Bz)AFG-NH2; configuration not given here), for which the TGI in the assay on CCRF-CEM leukemia was more than 100 µM; in the assay on LOX IMVI melanoma, 49.5 µM; in the assay on MDA-MB-435, 47.4 µM; with NCI-H226 lung, 51 µM; in the assay on OVCAR-8 ovarian it was 58.8 µM; in the assay on PC-3 prostate, 37.3 µM. Besides, the results for the TGI with RPMI-8226 leukemia, with SF-268 CNS and in the assay with UACC-257 melanoma were 59.7 µM, 43 µM and 37 µM, respectively.
For the compound `N#CN=C(N)c1sc2nc3c(c(-c4ccc(Br)cc4)c2c1N)CCCC3`, the TGI is more than 100 µM with CCRF-CEM leukemia; 41.2 µM in the assay with LOX IMVI melanoma; 13.6 µM in the assay with MDA-MB-435; 42 µM in the assay on NCI-H226 lung; 86.8 µM with OVCAR-8 ovarian; 52.7 µM in the assay on PC-3 prostate. Moreover, the TGI in the assay on RPMI-8226 leukemia is 56.5 µM; with SF-268 CNS, more than 100 µM; with UACC-257 melanoma, more than 100 µM.
Consider `C=C(C)C(=O)O[C@H]1C/C(CO)=C/CCC(=C)C(OC(C)=O)[C@H]2OC(=O)C(=C)[C@H]12` (some centres undefined), for which the TGI with CCRF-CEM leukemia is 6.2 µM; in the assay with LOX IMVI melanoma, 27 µM; in the assay on MDA-MB-435, 17.8 µM; with NCI-H226 lung, more than 100 µM; in the assay with OVCAR-8 ovarian it was 39.8 µM; with PC-3 prostate it was 58.9 µM. The TGI is 19.3 µM in the assay with RPMI-8226 leukemia, 10.9 µM in the assay on SF-268 CNS and 24.8 µM in the assay with UACC-257 melanoma.
With `Oc1ccc(-c2csc(NNC3=NC/C(=C/c4ccc5c(c4)OCO5)S3)n2)cc1O`, the TGI in the assay with EKVX NSCLC, in the assay with LOX IMVI melanoma, with MDA-MB-435, with NCI-H226 lung, in the assay on OVCAR-8 ovarian and in the assay on PC-3 prostate was more than 100 µM each time. Also, the TGI in the assay on UACC-257 melanoma was more than 100 µM.
Consider `OC1[C@H]([C@H]2CCCC[C@@H]2O)CCC[C@@H]1[C@@H]1CCCC[C@H]1O` (some centres undefined), for which the TGI in the assay on CCRF-CEM leukemia, in the assay with EKVX NSCLC, in the assay with LOX IMVI melanoma, in the assay with NCI-H226 lung, in the assay on OVCAR-8 ovarian and in the assay with RPMI-8226 leukemia was more than 100 µM throughout. In addition, the TGI in the assay with SF-268 CNS and in the assay on UACC-257 melanoma was more than 100 µM each time.
`CC[C@]1(O)C[C@H]2CN(CCc3c([nH]c4ccccc34)[C@@](C(=O)OC)(c3cc4c(cc3OC)N(C=O)[C@H]3[C@@](O)(C(=O)OC)[C@H](OC(C)=O)[C@]5(CC)C=CCN6CC[C@]43[C@@H]65)C2)C1`: the GI50 in the assay on MDA-MB-435 was 0.0122 µM. In the assay with SF-268 CNS, the TGI was 8.13 µM and 31.2 µM and 79.2 µM.
Take `O=C(OCc1ccccc1CN1CCOCC1)c1cccc(Br)c1`: the TGI with EKVX NSCLC, in the assay with LOX IMVI melanoma, in the assay on MDA-MB-435, in the assay on NCI-H226 lung, in the assay on OVCAR-8 ovarian and in the assay with PC-3 prostate was more than 100 µM in each case. The TGI is more than 100 µM with SF-268 CNS and 63.4 µM with UACC-257 melanoma.
Regarding `COc1ccc2nc3cc(Cl)ccc3c(NCCCN(Cc3cc(OC)c(OC)c(OC)c3)Cc3cc(OC)c(OC)c(OC)c3)c2c1`, the TGI in the assay with EKVX NSCLC came out at 37.4 µM; in the assay with NCI-H226 lung, 34.5 µM; in the assay with OVCAR-8 ovarian, 25.5 µM; in the assay with PC-3 prostate, 30.6 µM; in the assay on RPMI-8226 leukemia, 32 µM; in the assay with SF-268 CNS it was 41.7 µM. In the assay with UACC-257 melanoma, this compound returned a TGI of 28.8 µM.
On to `CCC(C)n1c(C)nc2c1C(=O)c1ccccc1C2=O` (centres undefined), for which the TGI with CCRF-CEM leukemia, with EKVX NSCLC, in the assay with LOX IMVI melanoma, with NCI-H226 lung, with OVCAR-8 ovarian and with SF-268 CNS was more than 100 µM each time. The compound also showed a TGI in the assay on UACC-257 melanoma of 93.8 µM.
For `CC(=O)Nc1ccc(Nc2cc(=O)[nH]c(=O)[nH]2)cc1`, the TGI in the assay on EKVX NSCLC, in the assay with LOX IMVI melanoma, in the assay with MDA-MB-435, in the assay on NCI-H226 lung, with OVCAR-8 ovarian and in the assay on PC-3 prostate was more than 100 µM in each case. Besides, the TGI with RPMI-8226 leukemia, with SF-268 CNS and in the assay with UACC-257 melanoma was more than 100 µM in each case.
With `O=C1/C(=C/c2ccccc2)CCCC1CN1CCCCC1` (centres undefined), the TGI in the assay with EKVX NSCLC is 28.8 µM; in the assay with LOX IMVI melanoma it was 3.3 µM; in the assay on MDA-MB-435, 4.26 µM; with NCI-H226 lung, 9.87 µM; in the assay on OVCAR-8 ovarian it was 4.13 µM; in the assay on PC-3 prostate it was 24.1 µM. Moreover, the TGI is more than 100 µM in the assay on RPMI-8226 leukemia, 3.59 µM in the assay on SF-268 CNS and 22 µM with UACC-257 melanoma.
As to `Cc1ccc(S(=O)(=O)N2CCCN(S(=O)(=O)c3ccc(C)cc3)CCN(S(=O)(=O)c3ccc(C)cc3)CCCSCC2)cc1`, the TGI in the assay on CCRF-CEM leukemia, in the assay with EKVX NSCLC, with MDA-MB-435, in the assay with NCI-H226 lung, with OVCAR-8 ovarian and with RPMI-8226 leukemia was more than 100 µM throughout. Moreover, the TGI with SF-268 CNS is more than 100 µM.
Turning to `CCc1ccc(N=Cc2cc(OC)c(OC)c(OC)c2)cc1`, the TGI with CCRF-CEM leukemia is more than 100 µM; in the assay on EKVX NSCLC, more than 100 µM; with LOX IMVI melanoma, more than 100 µM; in the assay with OVCAR-8 ovarian, more than 100 µM; with RPMI-8226 leukemia, 47.2 µM; with SF-268 CNS it was more than 100 µM. The TGI in the assay on UACC-257 melanoma is more than 100 µM.
As for `Cc1ccccc1C(=O)c1c(O)c2c(c(O)c1Br)CCCC2`, the TGI in the assay on EKVX NSCLC worked out at 34.3 µM; in the assay on NCI-H226 lung, 58.4 µM; in the assay on OVCAR-8 ovarian, 36 µM; in the assay on RPMI-8226 leukemia, 57.5 µM; with SF-268 CNS, 29 µM; in the assay on UACC-257 melanoma, 29.2 µM.
Turning to `COC(=O)c1c2c(cc3c1CC1(Cc4cc5c(c(C=O)c4C1)CCCC5)C3)CCCC2` (centres undefined), the TGI with EKVX NSCLC, in the assay with LOX IMVI melanoma, with MDA-MB-435, in the assay with NCI-H226 lung, in the assay on OVCAR-8 ovarian and with PC-3 prostate was more than 100 µM each time. Besides, the TGI with RPMI-8226 leukemia and in the assay on UACC-257 melanoma was more than 100 µM throughout.
Consider `OCC1OC(n2nc(-c3ccccc3)nc2-c2cnccn2)C(O)C(O)C1O` (centres undefined), for which the TGI in the assay on CCRF-CEM leukemia, in the assay with LOX IMVI melanoma, in the assay with MDA-MB-435, with OVCAR-8 ovarian, with PC-3 prostate and in the assay on RPMI-8226 leukemia was more than 100 µM throughout. In the assay with UACC-257 melanoma, this compound yielded a TGI of more than 100 µM.
Regarding `C=C(CN(C)C)C(=O)c1ccccc1C`, the TGI was 34.2 µM in the assay on CCRF-CEM leukemia; more than 100 µM with EKVX NSCLC; more than 100 µM in the assay on LOX IMVI melanoma; more than 100 µM in the assay on NCI-H226 lung; more than 100 µM in the assay on OVCAR-8 ovarian; 48.6 µM in the assay on RPMI-8226 leukemia. The TGI with SF-268 CNS and with UACC-257 melanoma was more than 100 µM throughout.
With `CC(=O)OC12/C(=N/O)CCCCCC1c1ccccc12` (centres undefined), the TGI in the assay with CCRF-CEM leukemia was 92.3 µM; in the assay with EKVX NSCLC it was more than 100 µM; in the assay on LOX IMVI melanoma, more than 100 µM; in the assay with NCI-H226 lung, more than 100 µM; in the assay on OVCAR-8 ovarian it was more than 100 µM; in the assay with RPMI-8226 leukemia, more than 100 µM. Besides, the TGI in the assay on SF-268 CNS and with UACC-257 melanoma was more than 100 µM throughout.
With `CN(C)CCOc1cccc2c1C(=O)c1ccccc1C2=O`, the TGI with CCRF-CEM leukemia was 64.9 µM; with EKVX NSCLC, 34.6 µM; with LOX IMVI melanoma it was 18.6 µM; in the assay with NCI-H226 lung it was 22.2 µM; in the assay on OVCAR-8 ovarian it was 56 µM; in the assay on SF-268 CNS, 27.3 µM. In the assay with UACC-257 melanoma, the TGI amounted to 25.8 µM.
